In patent publication US20050256103A1, “Indole derivative having piperidine ring” (Eisai Co., Ltd., priority 2004, published 2005):
pIC50: −log10 of the molar value. Where two headings read alike, the source gives them in different places.

How the values were obtained:
5-HT1A receptor = target: T1, 5-HT1A receptor (Sus scrofa, UniProt A0A4X1UTF5); experiment: Affinity for serotonin 1A receptor: inhibition of [3H]MPPF binding in swine hippocampal membrane fraction; details: for pIC50: [3H]MPPF 0.5 nM, swine hippocampal membrane, 37°C 30 min; for L/H ratio: low affinity IC50 divided by high affinity IC50, 1 or smaller = no intrinsic activity, 2 or greater = intrinsic activity
T1 construct: Swine hippocampus was homogenized in a 50 mM Tris-Hcl buffer; from tissue; host or cells: swine hippocampus, membrane fraction
T1 sequence (A0A4X1UTF5 1-422): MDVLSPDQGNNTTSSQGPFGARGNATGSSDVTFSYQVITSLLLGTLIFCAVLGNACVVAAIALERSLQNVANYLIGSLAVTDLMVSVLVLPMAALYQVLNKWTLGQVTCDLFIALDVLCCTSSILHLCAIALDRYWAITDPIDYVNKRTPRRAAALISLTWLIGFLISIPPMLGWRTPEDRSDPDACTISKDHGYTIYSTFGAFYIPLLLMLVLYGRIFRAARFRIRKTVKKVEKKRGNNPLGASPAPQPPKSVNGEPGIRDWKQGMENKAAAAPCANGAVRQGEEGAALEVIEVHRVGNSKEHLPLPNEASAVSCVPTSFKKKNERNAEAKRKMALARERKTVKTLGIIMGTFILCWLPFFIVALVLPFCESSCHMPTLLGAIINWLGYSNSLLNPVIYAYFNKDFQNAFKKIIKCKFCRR
Text: (1) The affinity of a test substance for a 5-HT1A receptor was examined by an inhibition experiment, in which the inhibitory effect of the test substance against the binding of [^3H]-4-(2′-methoxy)phenyl-1-(2′-(N-2″-pyridinyl)-p-fluorobenzamido)ethyl-piperazine (MPPF) that selectively binds to the 5-HT1A receptor in a swine hippocampal membrane fraction was examined. The 5-HT1A receptor that is a G-protein binding receptor becomes a G-protein binding state with addition of MgCl2. In contrast, it becomes a G-protein non-binding state with addition of guanylylimido diphosphate (Gpp(NH)p). […] Thus, both the affinity of a test substance to the receptor that was in a state of not binding to the G-protein and the affinity of the test substance to the receptor that was in a state of binding to the G-protein were obtained. Then, the obtained values were compared to each other, so as to estimate the level of the intrinsic activity of the test substance. Theoretically, when the value (L/H) obtained by dividing the affinity of a test substance to the receptor that is in a low affinity state (IC50 value) by the affinity of a test substance to the receptor that is in a high affinity state (IC50 value) is 1 or less, the intrinsic activity thereof is zero. The greater this value, the higher the intrinsic activity that can be obtained.
Swine hippocampus was homogenized in a 50 mM Tris-Hcl buffer (pH 7.4; hereinafter referred to as buffer A) that had been cooled on ice. The suspension was centrifuged at 40,000×g for 15 minutes. The obtained pellet was suspended in buffer solution A, and the thus obtained solution was then centrifuged at 40,000×g for 15 minutes. The same operation was repeated 2 or 3 times. The finally obtained pellet was suspended in a buffer solution A in an amount 10 times the wet weight of the swine hippocampus, so as to obtain a membrane fraction. The obtained membrane fraction was stored at −80° C. until use.
A mixture (0.5 ml) used for incubation comprised an appropriate amount of the membrane fraction, a test substance with a desired concentration, MgCl2 (final concentration: 10 mM) or Gpp(NH)p (final concentration: 1 mM), [^3H]MPPF (final concentration: 0.5 nM), dimethyl sulfoxide (final concentration: 1% (v/v)), and a 50 mM Tris-Hcl buffer (pH 7.4). The reaction was initiated with addition of the membrane fraction, and the mixture was incubated at 37° C. for 30 minutes. After completion of the incubation, the mixture was subjected to vacuum filtration with a glass filter, using Cell Harvester. The filter was washed with buffer solution A that had been cooled on ice. Thereafter, radioactivity binding to the receptor was measured with a liquid scintillation counter. Non-specific binding was defined as binding detected in the presence of 10 μM WAY-100,635.

serotonin 1A receptor = target: T2, serotonin 1A receptor (Mus musculus, UniProt Q64264); experiment: Antagonistic effect on serotonin 1A receptor agonist (8-OH-DPAT)-induced hypothermia in mouse; format: in vivo; details: CD-1 (ICR) male mice; inhibition of hypothermia by 8-OH-DPAT 0.5 mg/kg sc; test substance 15 minutes before agonist
T2 construct: into the rectum of CD-1 (ICR) male mice (25-45 g); from tissue; host or cells: living CD-1 (ICR) male mice (in vivo)
T2 sequence (Q64264 1-421): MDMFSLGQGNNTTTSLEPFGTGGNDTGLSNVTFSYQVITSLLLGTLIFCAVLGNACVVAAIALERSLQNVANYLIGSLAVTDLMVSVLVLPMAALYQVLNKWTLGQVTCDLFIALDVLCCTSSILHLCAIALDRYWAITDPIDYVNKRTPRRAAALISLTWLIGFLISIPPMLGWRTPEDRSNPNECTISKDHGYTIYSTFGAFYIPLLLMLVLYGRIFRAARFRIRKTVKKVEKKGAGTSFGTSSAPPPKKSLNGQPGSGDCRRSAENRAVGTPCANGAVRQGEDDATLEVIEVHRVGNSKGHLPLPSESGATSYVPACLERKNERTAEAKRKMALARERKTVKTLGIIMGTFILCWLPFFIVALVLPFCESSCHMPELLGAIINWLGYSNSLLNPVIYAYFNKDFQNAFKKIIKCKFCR
Protocol: (1) A thermistor probe was inserted at a depth of approximately 2 cm into the rectum of CD-1 (ICR) male mice (25-45 g), so as to measure the body temperature thereof. Body temperature is decreased by subcutaneous administration of serotonin 1A receptor agonist (8-hydroxy-dipropylaminotetralin (8-OH-DPAT) 0;5 mg/kg. Since a serotonin 1A antagonist inhibits such action, the antagonistic effect of a test substance to a serotonin 1A receptor was evaluated using the inhibitory effect of the hypothermia as an index. The test results are shown in Table 2 indicated below. A test substance was administered 15 minutes before the administration of the serotonin 1A agonist. A serotonin 1A partial agonist alone decreases the body temperature, depending on the degree of the agonistic action thereof. In addition, it has a weak antagonistic effect on 8-OH-DPAT-induced hypothermia.

[1] = receptor in high affinity (G-protein binding, MgCl2 10 mM) state, read-out: High affinity IC50
[2] = receptor in low affinity (G-protein non-binding, Gpp(NH)p 1 mM) state, read-out: Low affinity IC50

Structure (SMILES)	pIC50 (5-HT1A receptor; [1])	pIC50 (5-HT1A receptor; [2])	L/H ratio (5-HT1A receptor)	ED50 (serotonin 1A receptor)
COc1cc2c(cc1CCN1CCC(n3ccc4ccc(C(N)=O)cc43)CC1)OCCO2 [Compound 31, 1-{1-[2-(7-methoxy-2,3-dihydrobenz[1,4]dioxin-6-yl)ethyl]piperidin-4-yl}-1H-indole-6-carboxamide]	9.80	9.82	0.9	0.04 mg/kg, sc
COc1ccc2c(c1CCN1CCC(n3ccc4ccc(C(N)=O)cc43)CC1)OCCO2 [Compound 32, 1-{1-[2-(6-methoxy-2,3-dihydrobenz[1,4]dioxin-5-yl)ethyl]piperidin-4-yl}-1H-indole-6-carboxamide]	9.59	9.60	1	0.04 mg/kg, sc
COc1cc2c(cc1CCN1CCC(n3ccc4ccc(C(N)=O)cc43)CC1)C(=O)N(C)CC2 [Compound 33, 1-{1-[2-(6-methoxy-2-methyl-1-oxo-1,2,3,4-tetrahydroisoquinoline-7-yl)ethyl]piperidin-4-yl}-1H-indole-6-carboxamide]	9.77	9.92	0.7	0.12 mg/kg, sc
COc1ccc2c(c1CCN1CCC(n3ccc4ccc(C(N)=O)cc43)CC1)CCN(C)C2=O [Compound 34, 1-(1-(2-(6-methoxy-2-methyl-1-oxo-1,2,3,4-tetrahydroisoquinolin-5-yl)ethyl)piperidin-4-yl)-1H-indole-6-carboxamide]	9.59	9.70	0.8	0.37 mg/kg, sc
COc1ccc2c(=O)ccoc2c1CCN1CCC(n2ccc3ccc(C(N)=O)cc32)CC1 [Compound 35, 1-{1-[2-(7-methoxy-4-oxo-4H-chromen-8-yl)ethyl]piperidin-4-yl}-1H-indole-6-carboxamide]	9.57	9.64	0.9	0.2 mg/kg, sc
COc1ccc2c(=O)c(C)c(C)oc2c1CCN1CCC(n2ccc3ccc(C(N)=O)cc32)CC1 [Compound 36, 1-{1-[2-(7-methoxy-2,3-dimethyl-4-oxo-4H-chromen-8-yl)ethyl]piperidin-4-yl}-1H-indole-6-carboxamide]	9.59	9.85	0.5	0.2 mg/kg, sc
CNC(=O)c1ccc2ccn(C3CCN(CCc4cc5c(cc4OC)CCN(C)C5=O)CC3)c2c1 [Compound 38, 1-{1-[2-(6-methoxy-2-methyl-1-oxo-1,2,3,4-tetrahydroisoquinolin-7-yl)ethyl]piperidin-4-yl}-N-methyl-1H-indole-6-carboxamide]	9.70	9.89	0.7	0.19 mg/kg, sc
COc1ccc2ccccc2c1CCN1CCC(n2ccc3ccc(C(N)=O)cc32)CC1 [Compound 44, 1-{1-[2-(2-methoxynaphthalen-1-yl)ethyl]piperidin-4-yl}-1H-indole-6-carboxamide]	9.40	9.33	1.2	0.41 mg/kg, sc
COc1cc2ccccc2cc1CCN1CCC(n2ccc3ccc(C(N)=O)cc32)CC1 [Compound 45, 1-{1-[2-(3-methoxynaphthalen-2-yl)ethyl]piperidin-4-yl}-1H-indole-6-carboxamide]	9.24	9.16	1.2	0.26 mg/kg, sc
COc1ccc2c(c1CCN1CCC(n3ccc4ccc(C(N)=O)cc43)CC1)OCCC2O (centres unmarked) [Compound 46, 1-{1-[2-(4-hydroxy-7-methoxychroman-8-yl)ethyl]piperidin-4-yl}-1H-indole-6-carboxamide]	9.62	9.48	1.4	0.3 mg/kg, sc
COc1ccc2c(c1CCN1CCC(n3ccc4ccc(C(N)=O)cc43)CC1)OCCC2=O [Compound 47, 1-{1-[2-(7-methoxy-4-oxochroman-8-yl)ethyl]piperidin-4-yl}-1H-indole-6-carboxamide]	9.64	9.64	1	0.21 mg/kg, sc
